Measured values as given in patent publication US10526332B2, “Imidazo-pyrimidone compounds, and preparation method and application thereof” (Nanjing Gator Meditech Company, Ltd., priority 2015, dated 2020).

Legend:
HCT116 = experiment: MTS cell proliferation test, HCT116; conditions: Homo sapiens, HCT-116, 72 h, read-out: HCT116 IC50 (Mean ± SD);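 also: absorbance at 490 nm after MTS/PMS addition, survival relative to untreated cells (100%) after blank subtraction, IC50 from the concentration–survival curve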
Protocol: (§1) The disclosed compounds and their pharmaceutically accepted salts are assayed for their anti-cancer activities by the following method. • MTS Cell Proliferation Test 1. Materials 1.1. […] Cell Lines
(§2) Two cell lines were used, both HCT116 and MDA-MB-231 were purchased from USATCC.
(§3) MTS reagent powder was purchased from Promega. Cat #G1111; PMS from Sigma, Cat #P8625; cell culture medium RPMI-1640, Cat #10040562R; DMEM, Cat #0013CVR; 100× sodium pyruvate solution Cat #136007; 100× Penicillin Streptomycin Solution, Cat ⊇15140122; 100× Penicillin Streptomycin Solution, Cat #15140122; 0.25% Trypsin (Parenzyme), Cat #25200-072; and fetal bovine serum, Cat #16000-044 were all purchased from Life Technologies.
(§4) • Thermo incubator (Format 371); • Heat force Biosafety Cabinet (HF sage 1500); • BioTek Microplate Reader (Synergy 2). 2. […] 2.3 Procedure of MTS Methods:
(§5) Cells at logarithmic phase were harvested, then digested with 0.25% trypsin, and re-suspense in complete growth medium. 150 uL/well of HCT-116 and MDA-MB-231 were dispensed into 96 well culture plates with 2.5×10^3 cell/well. The plates were pre-incubated in a humidified CO2 incubator at 37° C., 5% CO2) for 24 hours. 50 uL of various concentration of test compounds and reference compound were added. A negative control (only cells and culture medium without compound) and blank control (only culture medium without cells) were set at the same time. The plates were incubated for 72 hr in the incubator. The MTS/PMS solution was prepared and added into 96 well plates according to the test instruction by Promega Corporation. The plates were incubated again for some time, then the absorbance at 490 nm were measured using Biotek Instruments, Inc microplate reader and the cell survival rates calculated. Cell Survival Rate(%)=(At−Ab)/(Ac−Ab)×100% where, • At=Absorbance value of test compound • Ab=Absorbance value of blank • Ac=Absorbance value of control 3. Results

MDA-MB-231 = experiment: MTS cell proliferation test, MDA-MB-231; conditions: Homo sapiens, MDA-MB-231, 72 h, read-out: MDA231 IC50 (Mean ± SD);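 also: cells settled 24 h before compound addition, MTS absorbance at 490 nm, survival as percent of untreated cells after blank subtraction, IC50 fitted from survival versus concentration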
Protocol: as §1, §2, §3, §4, §5

Compound | IC50 (HCT116) [µM] | IC50 (MDA-MB-231) [µM]
O=C1C2=C(CCN(Cc3cccc(F)c3)C2)N2CCN=C2N1Cc1ccccc1C(F)(F)F [Compound I-50, 7-(3-fluorobenzyl)-4-(2-(trifluoromethyl)benzyl)-1,2,6,7,8,9-hexahydroimidazo[1,2-a]pyrido[3,4-e]pyrimidin-5(4H)-one] | 0.77 ± 0.014 | 1.77 ± 0.429
Cc1ccccc1CN1C(=O)C2=C(CCN(Cc3ccccc3)C2)N2CCN=C12 [TIC10, 7-benzyl-4-(2-methylbenzyl)-1,2,6,7,8,9-hexahydroimidazo[1,2-a]pyrido[3,4-e]pyrimidin-5(4H)-one, reference compound] | 1.06 ± 0.24 | 0.79 ± 0.08
Cc1cccc(CN2CCC3=C(C2)C(=O)N(Cc2ccccc2F)C2=NCCN23)c1 [Compound I-30, 4-(2-fluorobenzyl)-7-(3-methylbenzyl)-1,2,6,7,8,9-hexahydroimidazo[1,2-a]pyrido[3,4-e]pyrimidin-5(4H)-one] | 2.07 ± 0.062 | 2.13 ± 0.005
O=C1C2=C(CCN(Cc3ccccc3F)C2)N2CCN=C2N1Cc1ccccc1C(F)(F)F [Compound I-12, 7-(2-fluorobenzyl)-4-(2-(trifluoromethyl)benzyl)-1,2,6,7,8,9-hexahydroimidazo[1,2-a]pyrido[3,4-e]pyrimidin-5(4H)-one] | 2.04 ± 0.029 | 2.07 ± 0.001
O=C1C2=C(CN(Cc3ccccc3)C2)N2CCN=C2N1Cc1ccccc1Br [Compound I-55, 2-Benzyl-5-(2-bromobenzyl)-2,3,7,8-tetrahydro-1H-imidazo[1,2-a]pyrrolo[3,4-e]pyrimidin-4(5H)-one] | 2.14 ± 0.001 | 2.19 ± 0.039
Cc1cccc(CN2CCC3=C(C2)C(=O)N(Cc2ccccc2Cl)C2=NCCN23)c1 [Compound I-32, 4-(2-chlorobenzyl)-7-(3-methylbenzyl)-1,2,6,7,8,9-hexahydroimidazo[1,2-a]pyrido[3,4-e]pyrimidin-5(4H)-one] | 0.77 ± 0.048 | 0.74 ± 0.001
O=C1C2=C(CCN(Cc3ccccc3Cl)C2)N2CCN=C2N1Cc1ccccc1C(F)(F)F [Compound I-24, 7-(2-chlorobenzyl)-4-(2-(trifluoromethyl)benzyl)-1,2,6,7,8,9-hexahydroimidazo[1,2-a]pyrido[3,4-e]pyrimidin-5(4H)-one] | 2.09 ± 0.041 | 1.99 ± 0.039
O=C1C2=C(CCN(Cc3ccccc3Br)C2)N2CCN=C2N1Cc1ccccc1C(F)(F)F [Compound I-17, 7-(2-bromobenzyl)-4-(2-(trifluoromethyl)benzyl)-1,2,6,7,8,9-hexahydroimidazo[1,2-a]pyrido[3,4-e]pyrimidin-5(4H)-one] | 2.02 ± 0.022 | 2.14 ± 0.031
Cc1ccccc1CN1CCC2=C(C1)C(=O)N(Cc1ccccc1C(F)(F)F)C1=NCCN12 [Compound I-22, 7-(2-methylbenzyl)-4-(2-(trifluoromethyl)benzyl)-1,2,6,7,8,9-hexahydroimidazo[1,2-a]pyrido[3,4-e]pyrimidin-5(4H)-one] | 2.03 ± 0.009 | 2.13 ± 0.008
O=C1C2=C(CCN(Cc3ccccc3)C2)N2CCN=C2N1Cc1ccc(Cl)cc1Cl [Compound I-41, 7-benzyl-4-(2,4-dichlorobenzyl)-1,2,6,7,8,9-hexahydroimidazo[1,2-a]pyrido[3,4-e]pyrimidin-5(4H)-one] | 1.73 ± 0.25 | 2.01 ± 0.01
O=C1C2=C(CCN(Cc3cccc(Cl)c3)C2)N2CCN=C2N1Cc1ccccc1Br [Compound I-37, 4-(2-bromobenzyl)-7-(3-chlorobenzyl)-1,2,6,7,8,9-hexahydroimidazo[1,2-a]pyrido[3,4-e]pyrimidin-5(4H)-one] | 2.31 ± 0.033 | 2.33 ± 0.095
O=C1C2=C(CCN(Cc3ccccc3F)C2)N2CCN=C2N1Cc1ccccc1Cl [Compound I-13, 4-(2-chlorobenzyl)-7-(2-fluorobenzyl)-1,2,6,7,8,9-hexahydroimidazo[1,2-a]pyrido[3,4-e]pyrimidin-5(4H)-one] | 1.77 ± 0.072 | 1.94 ± 0.277
O=C1C2=C(CCN(Cc3ccccc3Br)C2)N2CCN=C2N1Cc1ccccc1Br [Compound I-19, 4,7-bis(2-bromobenzyl)-1,2,6,7,8,9-hexahydroimidazo[1,2-a]pyrido[3,4-e]pyrimidin-5(4H)-one] | 2.22 ± 0.007 | 3.67 ± 0.036
O=C1C2=C(CCN(Cc3cccc(Cl)c3)C2)N2CCN=C2N1Cc1ccccc1C(F)(F)F [Compound I-35, 7-(3-chlorobenzyl)-4-(2-(trifluoromethyl)benzyl)-1,2,6,7,8,9-hexahydroimidazo[1,2-a]pyrido[3,4-e]pyrimidin-5(4H)-one] | 6.21 ± 0.077 | 4.21 ± 0.634
Cc1ccccc1CN1C(=O)C2=C(CCN(Cc3ccccc3Cl)C2)N2CCN=C12 [Compound I-27, 7-(2-chlorobenzyl)-4-(2-methylbenzyl)-1,2,6,7,8,9-hexahydroimidazo[1,2-a]pyrido[3,4-e]pyrimidin-5(4H)-one] | 2.13 ± 0.045 | 2.26 ± 0.018
O=C1C2=C(CCN(Cc3ccccc3)C2)N2CCN=C2N1Cc1ccccc1C(F)(F)F [Compound I-4, 7-benzyl-4-(2-(trifluoromethyl)benzyl)-1,2,6,7,8,9-hexahydroimidazo[1,2-a]pyrido[3,4-e]pyrimidin-5(4H)-one] | 1.36 ± 0.023 | 1.17 ± 0.178
O=C1C2=C(CCN(Cc3ccccc3Cl)C2)N2CCN=C2N1Cc1ccccc1F [Compound I-23, 7-(2-chlorobenzyl)-4-(2-fluorobenzyl)-1,2,6,7,8,9-hexahydroimidazo[1,2-a]pyrido[3,4-e]pyrimidin-5(4H)-one] | 2 ± 0.026 | 2.14 ± 0.025
O=C1C2=C(CCN(Cc3cccc(F)c3)C2)N2CCN=C2N1Cc1ccccc1Br [Compound I-52, 4-(2-bromobenzyl)-7-(3-fluorobenzyl)-1,2,6,7,8,9-hexahydroimidazo[1,2-a]pyrido[3,4-e]pyrimidin-5(4H)-one] | 1.18 ± 0.155 | 2.07 ± 0.115
O=C1C2=C(CCN(Cc3ccccc3)C2)N2CCN=C2N1Cc1cccc(Cl)c1 [Compound I-1, 7-Benzyl-4-(3-chlorobenzyl)-1,2,6,7,8,9-hexahydroimidazo[1,2-a]pyrido[3,4-e]pyrimidin-5(4H)-one] | 0.23 ± 0.009 | 0.24
O=C1C2=C(CCN(Cc3ccccc3Br)C2)N2CCN=C2N1Cc1ccccc1Cl [Compound I-18, 7-(2-bromobenzyl)-4-(2-chlorobenzyl)-1,2,6,7,8,9-hexahydroimidazo[1,2-a]pyrido[3,4-e]pyrimidin-5(4H)-one] | 2.15 ± 0.022 | –

Further lines, results first:

IC50 (HCT116) [µM] | IC50 (MDA-MB-231) [µM] | Compound
0.72 ± 0.001 | 0.86 ± 0.136 | Cc1cccc(CN2CCC3=C(C2)C(=O)N(Cc2ccccc2Br)C2=NCCN23)c1 [Compound I-33, 4-(2-bromobenzyl)-7-(3-methylbenzyl)-1,2,6,7,8,9-hexahydroimidazo[1,2-a]pyrido[3,4-e]pyrimidin-5(4H)-one]
0.03 | 0.05 | O=C1C2=C(CCN(Cc3ccccc3)C2)N2CCN=C2N1Cc1ccc(C(F)(F)F)cc1 [Compound I-39, 7-benzyl-4-(4-(trifluoromethyl)benzyl)-1,2,6,7,8,9-hexahydroimidazo[1,2-a]pyrido[3,4-e]pyrimidin-5(4H)-one]
0.7 ± 0.001 | 0.73 ± 0.002 | O=C1C2=C(CCN(Cc3cccc(Br)c3)C2)N2CCN=C2N1Cc1ccccc1F [Compound I-53, 7-(3-bromobenzyl)-4-(2-fluorobenzyl)-1,2,6,7,8,9-hexahydroimidazo[1,2-a]pyrido[3,4-e]pyrimidin-5(4H)-one]
0.08 | 0.12 ± 0.01 | O=C1C2=C(CCN(Cc3ccccc3)C2)N2CCN=C2N1Cc1ccc(Cl)c(Cl)c1 [Compound I-40, 7-benzyl-4-(3,4-dichlorobenzyl)-1,2,6,7,8,9-hexahydroimidazo[1,2-a]pyrido[3,4-e]pyrimidin-5(4H)-one]
0.58 ± 0.043 | 0.93 ± 0.098 | O=C1C2=C(CCN(Cc3cccc(F)c3)C2)N2CCN=C2N1Cc1ccccc1F [Compound I-49, 4-(2-fluorobenzyl)-7-(3-fluorobenzyl)-1,2,6,7,8,9-hexahydroimidazo[1,2-a]pyrido[3,4-e]pyrimidin-5(4H)-one]
0.73 ± 0.001 | 0.73 ± 0.002 | Cc1cccc(CN2CCC3=C(C2)C(=O)N(Cc2ccccc2C)C2=NCCN23)c1 [Compound I-34, 4-(2-methylbenzyl)-7-(3-methylbenzyl)-1,2,6,7,8,9-hexahydroimidazo[1,2-a]pyrido[3,4-e]pyrimidin-5(4H)-one]
0.73 | 1.07 ± 0.01 | O=C1C2=C(CCN(Cc3ccccc3)C2)N2CCN=C2N1Cc1ccc(Cl)c(C(F)(F)F)c1 [Compound I-42, 7-benzyl-4-(4-chloro-3-(trifluoromethyl)benzyl)-1,2,6,7,8,9-hexahydroimidazo[1,2-a]pyrido[3,4-e]pyrimidin-5(4H)-one]
0.7 ± 0.001 | 0.73 ± 0.004 | O=C1C2=C(CCN(Cc3cccc(F)c3)C2)N2CCN=C2N1Cc1ccccc1Cl [Compound I-51, 4-(2-chlorobenzyl)-7-(3-fluorobenzyl)-1,2,6,7,8,9-hexahydroimidazo[1,2-a]pyrido[3,4-e]pyrimidin-5(4H)-one]
0.71 ± 0.001 | 0.74 | Cc1ccccc1CN1C(=O)C2=C(CCN(Cc3cccc(C(F)(F)F)c3)C2)N2CCN=C12 [Compound I-9, 4-(2-methylbenzyl)-7-(3-(trifluoromethyl)benzyl)-1,2,6,7,8,9-hexahydroimidazo[1,2-a]pyrido[3,4-e]pyrimidin-5(4H)-one]
0.24 ± 0.02 | 0.4 ± 0.03 | O=C1C2=C(CCN(Cc3ccccc3)C2)N2CCN=C2N1Cc1cccc(C(F)(F)F)c1 [Compound I-38, 7-benzyl-4-(3-(trifluoromethyl)benzyl)-1,2,6,7,8,9-hexahydroimidazo[1,2-a]pyrido[3,4-e]pyrimidin-5(4H)-one]
0.72 | 0.74 ± 0.001 | O=C1C2=C(CCN(Cc3cccc(Cl)c3)C2)N2CCN=C2N1Cc1ccccc1Cl [Compound I-36, 4-(2-chlorobenzyl)-7-(3-chlorobenzyl)-1,2,6,7,8,9-hexahydroimidazo[1,2-a]pyrido[3,4-e]pyrimidin-5(4H)-one]
0.68 ± 0.003 | 0.73 ± 0.004 | Cc1ccccc1CN1C(=O)C2=C(CCN(Cc3ccccc3F)C2)N2CCN=C12 [Compound I-15, 7-(2-fluorobenzyl)-4-(2-methylbenzyl)-1,2,6,7,8,9-hexahydroimidazo[1,2-a]pyrido[3,4-e]pyrimidin-5(4H)-one]
